Results published in patent US10028992B2, “Methods of treating muscular dystrophy” (BOARD OF REGENTS OF THE NEVADA SYSTEM OF HIGHER EDUCATION …, priority 2012, dated 2018).
Where two headings read alike, the source gives them in different places.

System: α7 integrin promoter
Assay: muscle cell-based assay: α7βgal+/− myoblasts/myotubes, LacZ reporter, β-galactosidase cleavage of FDG
Parameters: species or system mouse
Conditions: for α7 integrin expression in muscle: screen of DIVERSet library; for Results in a α7+/− β-galactosidase assay, Myotubes, 0.5 uM: compound at 0.5 uM; for Results in a α7+/− β-galactosidase assay, Myotubes, 1 uM: compound at 1 uM; for Results in a α7+/− β-galactosidase assay, Myotubes, 5 uM: compound at 5 uM; for Results in a α7+/− β-galactosidase assay, Myotubes, 10 uM: compound at 10 uM; for Results in a α7+/− β-galactosidase assay, Myotubes, 20 uM: compound at 20 uM; for Results in a α7+/− β-galactosidase assay, Myotubes, 40 uM: compound at 40 uM
Summary of the method: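 Primary α7βgal+/− mouse myoblasts (LacZ knocked into α7 integrin exon 1, promoter retained), differentiated; promoter activity read as β-galactosidase conversion of non-fluorescent FDG to fluorescein. Hits followed by dose-response, western analysis and myostatin counterscreen.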

[1] = Mus musculus, given as log AC50 (negative values), read-out: Fit LogAC50 (converted)
[2] = curve class number, key not given
[3] = curve fit, activity at zero concentration
[4] = enhancement of α7 integrin expression in muscle cells
[5] = Mus musculus, enhancement of α7 integrin expression in muscle cells, read-out: EC50

N#Cc1ccc(Sc2nc3ccccc3[nH]2)cc1C#N [Compound 218]
EC50 [1]: 10 µM
Score (Table 12 compound data): 42
Fit Curve Class [2]: 2.2
Fit HillSlope (curve fit): 3.6272
Fit Zero Activity [%] [3]: 13.7566%

CC(=O)Nc1nonc1-c1nc2ccccc2n1CCC(C)C [Compound 219]
EC50 [1]: 11.2 µM
Score (Table 12 compound data): 42
Fit Curve Class [2]: 2.2
Fit HillSlope (curve fit): 1.5936
Fit Zero Activity [%] [3]: −7.5793%

C=CCn1c(COc2ccc(Cl)cc2)nnc1SCc1ccc(C#N)cc1 [Compound 220]
EC50 [1]: 11.2 µM
Score (Table 12 compound data): 42
Fit Curve Class [2]: 2.1
Fit HillSlope (curve fit): 3.2975
Fit Zero Activity [%] [3]: 8.1688%

O=C(Cn1nc(-c2ccc(Cl)cc2)ccc1=O)N1CCC2(CC1)OCCO2 [Compound 221]
Fit Curve Class: 2.2
Fit HillSlope: 4.095
Fit Zero Activity [%]: 7%
Score: 41
EC50 (Mus musculus, read-out: Fit LogAC50 (converted)): 11.2 µM

CCOC(=O)/C(C(=O)c1ccccc1)=C(\N)NCCO [Compound 222]
EC50 [1]: 12.6 µM
Score (Table 12 compound data): 41
Fit Curve Class [2]: 2.2
Fit HillSlope (curve fit): 4.095
Fit Zero Activity [%] [3]: 9.8519%

Cn1c(SCC(=O)c2ccccc2)nc2c(c1=O)C1(CCCC1)Cc1ccccc1-2 [Compound ID# 1001, 3-methyl-2-[(2-oxo-2-phenylethyl)thio]-3H-spiro[benzo[h]quinazoline-5,1″-cyclopentan]-4(6H)-one]
Optimal Concentration [4]: 12.5 μm
EC50 (enhancement of α7 integrin expression in muscle cells, read-out: EC50): 3 µM
α7 integrin expression in muscle: increased

CCC(=O)c1ccccc1OCCCN1CCN(C)CC1.Cl [Compound ID# 1002, 1-{2-[3-(4-methyl-1-piperazinyl)propoxy]Phenyl}-1-propanone hydrochloride]
EC50 [5]: 1.5 µM
Optimal Concentration [4]: 12.5 μm
α7 integrin expression in muscle: increased

CCC(=O)c1ccccc1OCCCN1CCCCC1.Cl [Compound ID# 1003, 1 {2-[3-(1-piperidinyl)propoxy}phenyl}-1-propanone hydrochloride]
EC50 [5]: 5 µM
Optimal Concentration [4]: 25 μm
α7 integrin expression in muscle: increased

CC(=O)N(O)CCCCCNC(=O)CCC(=O)N(O)CCCCCNC(=O)CCC(=O)N(O)CCCCCN [Deferoxamine, deferoxamine, reference compound]
EC50 (Mus musculus, Myotube, α7βgal+/− myotubes, dose-response, read-out: EC50): 10 µM
EC50 [5]: 10 µM
Optimal Concentration [4]: 20 μm

O=C(CNC(=O)c1cccc(F)c1)N/N=C/c1cc(Br)ccc1OCc1ccccc1 [drawing 311]
Results in a α7+/− β-galactosidase assay, Myotubes, 0.5 uM: −0.0152
Results in a α7+/− β-galactosidase assay, Myotubes, 1 uM: 0.1201
Results in a α7+/− β-galactosidase assay, Myotubes, 5 uM: 0.07121
Results in a α7+/− β-galactosidase assay, Myotubes, 10 uM: 0.000591
Results in a α7+/− β-galactosidase assay, Myotubes, 20 uM: −0.3123
Results in a α7+/− β-galactosidase assay, Myotubes, 40 uM: −0.2936

Cc1ccccc1-n1c(S)nnc1Cc1cccs1 [drawing 312]
Results in a α7+/− β-galactosidase assay, Myotubes, 0.5 uM: 0.05774
Results in a α7+/− β-galactosidase assay, Myotubes, 1 uM: 0.1436
Results in a α7+/− β-galactosidase assay, Myotubes, 5 uM: −0.03653
Results in a α7+/− β-galactosidase assay, Myotubes, 10 uM: 0.08958
Results in a α7+/− β-galactosidase assay, Myotubes, 20 uM: −0.1182
Results in a α7+/− β-galactosidase assay, Myotubes, 40 uM: −0.01563
